The subject of the assay is Laminin. The assay can be described thus: Laminin ELISA in lung tissue supernatant of aged mice. The settings on record: aged C57BL/6 mice, 25 mg/kg p.o. each substance, 90 days. Type of assay: in vivo, mouse. The method, then:
The experiments were performed in old C57b1/6 mice (28-30 weeks). Table 1 discloses the groups of mice used for the experimentation. C57BL/6 mice were bred and naturally aged in a pathogen-free colony. Mice were group-housed six per cage for the treatment regimen and maintained on a 12-hr light-dark schedule with ad libitum access to food and water. All experiments were designed according to the principles of animal use for gerontological research (Miller, R. A., & Nadon, N. L. (2000). Principles of animal use for gerontological research. Journals of Gerontology. Series A, Biological Sciences and Medical Sciences, 55, B117-B123) [table] The above test substances were administered to the mice for a period of 90 days. Rapamycin was used as a positive control. After 90 days of administration experiments were performed to assess the respiratory muscle function, anatomical changes, cellular senescence and immunological changes. Hyperinflation of the lungs may occur with ageing along with destruction of lung parenchyma or loss of supporting structures within the lung parenchyma (Gillooly M, Lamb D. Airspace size in lungs of lifelong non-smokers: effect of age and sex. Thorax. 1993; 48:39-43). […] Laminin was measured using commercially available ELISA Kit (AbCam ELISA Kit) according to the user's manual provided. […]
(In general: ELISA stands for enzyme-linked immunosorbent assay.)

SMILES strings stand for the structures.

The results in this text go back to patent US20250090614A1, “COMPOSITIONS AND METHODS FOR IMPROVING LUNG FUNCTION” (priority 2023, published 2025).

For `O=C(/C=C/c1ccc(O)c(O)c1)O[C@H](Cc1ccc(O)c(O)c1)C(=O)O` [Rosmarinic acid], the expression of laminin result is “increased”.
